Data published in patent US9206448B2, “Extraction solvents derived from oil for alcohol removal in extractive fermentation” (Butamax Advanced Biofuels LLC, priority 2010, dated 2015).
Where “and” joins values, the source holds several entries; their conditions need not be identical. Equal values may be shown once.

Legend:
[1] = system: strain NGCI-070; assay: Extractive fermentation, examples GLNOR661A-666A, 690A-695A, 721A-726A, 749A-754A; details: pH 5.5, fermentation broth
Procedure: (§1) Fermentation conditions: 30% pO2; temperature: 30° C.; pH 5.5 (unless noted otherwise); initial batch glucose: 20 g/L, maintained during production.
(§2) Both HPLC and GC analyses were used for the quantization of isobutanol in the aqueous phase and solvent phase respectively. Isobutanol in the aqueous was measured after filtration through a 0.2 um nylon filter with a HPLC (Agilent 1100, Agilent, Santa Clara, Calif.) under the following conditions: • Column: Bio-Rad, Aminex HPX-87H, No. 125-0143 • Mobile Phase: […] • Injection Volume: 10 uL • Flow Rate: 0.6 mL/min • Run Time: 22.5 minutes • Column Temperature: 65° C. • Detectors: Refractive Index • Detector Temperature: 40° C. • UV Detection: 210 nm, 4 nm bandwidth, Ref 360 nm, 100 nm bandwidth.
(§3) The solvent phase was measured with a GC (HP6890, Agilent, Santa Clara, Calif.) under the following conditions: • Column: J&W Scientific DB Waxter (50 m×0.32 mm ID, 1 um film) • Gas Carrier: Helium 4 mL/min • Injection Volume: 2 uL • Make Up Flow Rate: 40 mL/min • Run Time: 29 minutes • Oven Temperature: 40° C. for 5 min, 40° C. to 230° C. @10° C./min., 5 min 230° C. • Injector Split: 1:5 @ 250° C. • Flame Ionization Detection: 250° C.
(§4) The extractants were added to the fermentor broth at time zero exposing the culture to the solvent for the duration of the fermentation. Isobutanol concentrations in both the aqueous phase and organic phase were measured to calculate the partitioning coefficient of the extraction solvent. Glucose utilization was used to determine the biocompatability of the microorganism to the extractant.
(§5) The fermentations were carried out as described with the strain NGCI-065. The inoculum was prepared in two stages and incubated at 30° C. and 250 rpm in an incubator shaker (Innova 4200, New Brunswick Scientific, Edison, N.J.). The first stage or pre-seed was inoculated from a frozen glycerol seed stock, two vials were placed into a 250 mL flask with 30 mL of filter sterilized pre-seed media (Table 4) and grown for 24 hours to an OD of approximately 2. 15 mL of the pre-seed was then transferred to a 2 L flask with 270 mL of filter sterilized seed media (Table 5) for the second stage which was incubated for 24 hours. 30 mL of filter sterilized 10× YEP and 300 mL of filter sterilized 90-95% oleyl alcohol was then added and incubated for an additional 24 hours to a final OD of approximately 5-10 in the aqueous phase of the seed culture. For examples GLNOR639 and GLNOR640, the pH was 4.5.
Fermentation vessels (Applikon AD1010 Bioreactor, Applikon Biotechnology, Dover, N.J.) were sterilized with diH2O for 30 minutes (Amsco Renaissance 3033 Revas Steam Sterilizer, Steris Corporation, Mentor, Ohio). Once the vessels were finished sterilization in the autoclave and cooled to 30° C., the sterile diH2O was removed and the filter sterilized fermentation media was added to a volume of 280 mL. 70 mL of the aqueous phase from the second stage seed flasks was added to the fermentation vessel for a final aqueous volume of 350 mL. Immediately after inoculation, 100 mL of 10× YEP media supplementation was added as well as 450 mL of the respective extraction solvent for a final solvent to broth ratio of approximately 1:1. Fermentation set-point conditions were temperature 30° C., pO2 30%, pH 5.5 for GLNOR635A-638A and pH 4.5 for GLNOR639A-640A. The fermentation was sampled approximately every 8 hours from the time of inoculation to monitor glucose concentration, which was maintained between 5-20 g/L through the addition of 50% w/w glucose solution, and analyzed for isobutanol accumulation in both the aqueous phase and the extractant phase. Enough sample volume was taken at each time point to obtain a sample from both of the phases, then those samples were centrifuged in order to ensure a clean cut of each.
The examples in this set were performed the same as in the previous examples GLNOR635A-640A with the exception of the strain, pH, and supplement addition at time zero.

[2] = system: strain NGCI-065; assay: Extractive fermentation, examples GLNOR635A-640A
Procedure: as §1, §2, §3, §4, §5
Fermentation vessels (Applikon AD1010 Bioreactor, Applikon Biotechnology, Dover, N.J.) were sterilized with diH2O for 30 minutes (Amsco Renaissance 3033 Revas Steam Sterilizer, Steris Corporation, Mentor, Ohio). Once the vessels were finished sterilization in the autoclave and cooled to 30° C., the sterile diH2O was removed and the filter sterilized fermentation media was added to a volume of 280 mL. 70 mL of the aqueous phase from the second stage seed flasks was added to the fermentation vessel for a final aqueous volume of 350 mL. […] The fermentation was sampled approximately every 8 hours from the time of inoculation to monitor glucose concentration, which was maintained between 5-20 g/L through the addition of 50% w/w glucose solution, and analyzed for isobutanol accumulation in both the aqueous phase and the extractant phase. […]

[3] = system: Saccharomyces butanologen NGCI-070; assay: Shake flask incubation with fermentation broth, glucose consumption followed over time; type: cell-based, Saccharomyces cerevisiae; details: 3 parts broth to 1 part extractant
Procedure: Fatty amide/fatty acid aqueous ammonia preparation (1), and a preparation (1 a) constituted by preparation (1) mixed 1:1 with pure corn oil fatty acid (equivalent to 1:2 fatty amide:fatty acid) were incubated in shake flasks with fermentation broth containing the Saccharomyces butanologen NGCI-070 at a ratio of 3 parts broth to 1 part amide/acid mixture. […] Starting at a glucose concentration of 8.35 g/L, the shake flasks were then incubated for 25 h on an incubator shaker and the consumption of glucose followed as a function of time.

In the case of CCCCCCC(CO)CCCC (stereo not drawn) [Isofol ™ 12, 2-butyl-1-octanol], the “Kp (solvent partition coefficient)” value ([1]; listed as GLNOR749) is reported as 4.05 and the “Kp (solvent partition coefficient)” value ([1]; listed as GLNOR750) is reported as 4.22.
CCCCCCCC/C=C\CCCCCCCC(=O)O [Oleic Acid] was tested, and the “Kp (solvent partition coefficient)” value ([1]; listed as GLNOR665) was 2.61, the “Kp (solvent partition coefficient)” value ([1]; listed as GLNOR666) was 2.51 and the “Kp (solvent partition coefficient)” value ([2]; pH 4.5, fermentation broth, listed as GLNOR639) was 2.54. For the same molecule, the “Kp (solvent partition coefficient)” value ([2]; pH 4.5, fermentation broth, listed as GLNOR640) was 2.51, the “Kp (solvent partition coefficient)” value ([2]; pH 5.5, fermentation broth, listed as GLNOR637) was 2.64 and the “Kp (solvent partition coefficient)” value ([2]; pH 5.5, fermentation broth, listed as GLNOR638) was 2.56.
With CCCCCCCC/C=C\CCCCCCCCO [Oleyl Alcohol] the “Kp (solvent partition coefficient)” value ([1]; listed as GLNOR661) was 3.35, the “Kp (solvent partition coefficient)” value ([1]; listed as GLNOR690) was 3.74 and the “Kp (solvent partition coefficient)” value ([1]; listed as GLNOR691) was 3.77. The Glucose conc. ([3]; 18 hrs) was 4.26 g/L and 4.46 g/L, the Glucose conc. ([3]; 25 hrs) was 0 g/L and the Glucose conc. ([3]; Time = 0) was 8.35 g/L. For the same molecule, the “Kp (solvent partition coefficient)” value ([2]; pH 5.5, fermentation broth) was 3.38.
